Like-named read-outs stand apart in the source and are kept apart here. Square brackets hold non-standard residues; d marks the D form. Peptide text beside a SMILES is read from it. * marks the point of attachment. Hydrocinnamoyl = O=C(CCc1ccccc1)*
Experiments:
[1] = system: human neutrophils; assay: cells; type: cell-based; conditions: human neutrophils, fMLP/CB, mean ± SEM, n = 3, read-out: Anti-inflammation O2•− generation (IC50)
Description: Tables 5 and 6 explore whether there is an anti-inflamatory effect in the dipeptide derivatives. Because ferricytochrome c cannot penetrate cell membranes, it reacts with superoxide anion extracellularly. Also, there are absorptive reactions at 550 nm, and differences among the absorptive reactions can be used to evaluate the influence on the release of superoxide anion. The elastase is released by degranulation as the neutrophil is activated. Tables 5 and 6 use the substrate, MeO-Suc-Ala-Ala-Pro-Val-p-nitroanilide, with the specificity for reacting with the elastase so as to evaluate the influence of the candidate compound on the elastase release.
Blood was taken from healthy human donors (20-32 years old) by venipuncture, following a protocol approved by the Institutional Review Board at Chang Gung Memorial Hospital. Neutrophils were isolated by a standard method of dextran sedimentation prior to centrifugation in a Ficoll Hypaque gradient and the hypotonic lysis of erythrocytes.
The evaluation of O2.^− generation was based on the SOD-inhibitable reduction of ferricytochrome c. In brief, after supplementation with 0.5 mg ml^−1 ferricytochrome c and 1 mM Ca^2+, neutrophils were equilibrated at 37° C. for 2 min and incubated with drugs […].

[2] = system: human neutrophils; assay: cells; type: cell-based; conditions: fMLP/CB, mean ± SEM
Method: Degranulation of azurophilic granules was determined by elastase release as described above. Experiments were performed using MeO-Suc-[…]-nitroanilide as the elastase substrate. […] Results are expressed as the percentage of elastase release in the drug-free control group, DMSO. Tables 5 and 6 explore whether there is an anti-inflamatory effect in the dipeptide derivatives. Because ferricytochrome c cannot penetrate cell membranes, it reacts with superoxide anion extracellularly. Also, there are absorptive reactions at 550 nm, and differences among the absorptive reactions can be used to evaluate the influence on the release of superoxide anion. The elastase is released by degranulation as the neutrophil is activated. Tables 5 and 6 use the substrate, MeO-Suc-[…]-nitroanilide, with the specificity for reacting with the elastase so as to evaluate the influence of the candidate compound on the elastase release. Blood was taken from healthy human donors (20-32 years old) by venipuncture, following a protocol approved by the Institutional Review Board at Chang Gung Memorial Hospital. Neutrophils were isolated by a standard method of dextran sedimentation prior to centrifugation in a Ficoll Hypaque gradient and the hypotonic lysis of erythrocytes. […] The degranulation of azurophilic granules was determined by elastase release as described above. Experiments were performed using MeO-Suc-[…]-nitroanilide as the elastase substrate. Briefly, after supplementation with MeO-Suc-[…]-nitroanilide ([…] neutrophils (6×10^5 ml^-1) were equilibrated at 37° C. for 2 min and incubated with drugs for 5 min. […] The results are expressed as the percentage of elastase release in the drug-free control group.

Structure (SMILES)	melting point [°C]	IC50 ([1]; Neutrophil, Table 1) [µM]	IC50 ([2]; Neutrophil, n = 3, Table 1, read-out: Anti-inflammation NE release (IC50)) [µM]	IC50 ([1]; Neutrophil, Table 3) [µM]	IC50 ([2]; Neutrophil, n = 3, Table 3, read-out: Anti-inflammation NE release (IC50)) [µM]	IC50 ([1]; Table 3) [µM]	IC50 ([2]; n = 3, Table 3, read-out: Anti-inflammation NE release (IC50)) [µM]
COC(=O)[C@@H](Cc1ccccc1)NC(=O)[C@H](Cc1c[nH]c2ccccc12)NC(=O)CCc1ccccc1 [Compound 9, N—(N-Phenylpropanoyl-L-tryptophanyl)-D-phenylalanine methyl ester] (Hydrocinnamoyl-Trp-[dF]-OMe)	159 to 161	10.1 ± 3.05	12.5 ± 4.87				
O=C(N[C@@H](Cc1c[nH]c2ccccc12)C(=O)N[C@@H](CO)Cc1ccccc1)c1ccccc1 [Compound 13a, N—(N-Benzoyl-L-tryptophanyl)-D-phenylalaninol]	151 to 153			> 30	> 30		
O=C(N[C@@H](Cc1c[nH]c2ccccc12)C(=O)N[C@@H](CO)Cc1ccccc1)c1ccccc1 [Compound 13b, N—(N-Benzoyl-L-tryptophanyl)-D-phenylalaninol]	120 to 122					> 30	> 30
